From paper PMC12881674, “Activation of TRPV3 channels in bladder cancer cells stimulates ATP release” (Molecular Pharmacology, 2025) come the findings set out here.

The experiment has as its target T1, TRPV3 in KU-19-19 cells (Homo sapiens, UniProt Q8NET8).
T1 construct: host or cells: KU-19-19
T1 sequence (Q8NET8 1-790): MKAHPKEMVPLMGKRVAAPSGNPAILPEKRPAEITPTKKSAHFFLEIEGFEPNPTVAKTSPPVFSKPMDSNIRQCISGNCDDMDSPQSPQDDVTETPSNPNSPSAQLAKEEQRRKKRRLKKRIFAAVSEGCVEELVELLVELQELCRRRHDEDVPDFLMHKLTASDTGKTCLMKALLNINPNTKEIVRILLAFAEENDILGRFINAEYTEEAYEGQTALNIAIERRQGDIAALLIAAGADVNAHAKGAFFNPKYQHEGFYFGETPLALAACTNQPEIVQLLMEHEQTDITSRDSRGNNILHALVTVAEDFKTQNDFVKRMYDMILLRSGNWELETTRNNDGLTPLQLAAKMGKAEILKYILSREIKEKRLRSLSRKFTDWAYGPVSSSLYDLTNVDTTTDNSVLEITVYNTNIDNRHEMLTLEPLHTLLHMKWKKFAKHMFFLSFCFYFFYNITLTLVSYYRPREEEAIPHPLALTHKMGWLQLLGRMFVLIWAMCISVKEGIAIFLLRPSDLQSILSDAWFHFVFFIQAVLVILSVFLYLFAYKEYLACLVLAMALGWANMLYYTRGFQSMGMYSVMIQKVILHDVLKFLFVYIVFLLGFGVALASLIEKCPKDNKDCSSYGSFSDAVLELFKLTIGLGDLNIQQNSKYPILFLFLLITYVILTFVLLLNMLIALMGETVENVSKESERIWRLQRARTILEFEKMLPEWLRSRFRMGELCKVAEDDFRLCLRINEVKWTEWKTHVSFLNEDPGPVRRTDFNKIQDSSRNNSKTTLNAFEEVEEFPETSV
Nature of the experiment: calcium assay concentration-response in KU-19-19 cells. The format is cell-based. To be noted: read-out: EC50 for AV3-1-induced TRPV3 activation in KU-19-19 cells. The procedure:
Supplementation of the cellular cholesterol content in KU-19-19 cells was performed by adding cholesterol-loaded methyl-β-cyclodextrin (MβCD) to the cells. Cholesterol was dissolved in ethanol (20 mg/mL) by heating at 65 °C for 15 minutes. The cholesterol solution was then added dropwise to a 250 mM MβCD solution prepared in phosphate-buffered solution (PBS; Sigma Aldrich) at a 1:4 (v/v) ratio, yielding a stock containing 200 mM MβCD-cholesterol. KU-19-19 cells were incubated for 15 minutes at 37 °C in HBS containing 2.5 mM MβCD-cholesterol. As a control, KU-19-19 cells were incubated in HBS without MβCD-cholesterol supplement under the same conditions.
All fluorometric Ca^2+ assays were performed in HBS buffer at room temperature. […] For the primary compound screening and the generation of concentration-response analyses, a robotic liquid handling station (Freedom Evo 150; Tecan) with a built-in custom-made fluorescence plate imager was used. […] Fluorescence was excited using a 470-nm light-emitting diode, and emitted light was imaged through a 515-nm–long pass filter with a cooled Zyla 5.5 camera (Andor). Fluorescence was recorded and processed under the control of the μ-Manager 2.0 gamma software (https://micro-manager.org.[28]). After recording baseline fluorescence, compounds were dispensed into the wells via the liquid handling device. […]

Where two headings read alike, the source gives them in different places.

Broadly, the EC50 is the concentration giving half of the maximal effect. Regarding `COC(=O)C12CN(Cc3ccccc3)CC1(C(=O)OC)CN(Cc1ccccc1)C2` (centres unmarked) [AV3-1], the EC50 reads like this: (cells not supplemented with cholesterol) 19 ± 1.5 µM; (cholesterol supplementation (2.5 mM MβCD-cholesterol)) 6.3 ± 1.9 µM.
